In experiment [1] the target is recombinant SARS-CoV-2 Main protease (Mpro) (Severe acute respiratory syndrome coronavirus 2 (2019-nCoV) (SARS-CoV-2), UniProt P0DTD1). Nature of the experiment: Cov Mpro Biochemical IC50 Assay. To be noted: read-out: MPro IC50.
The next experiment concerns SARS-CoV-2-NLuc. The experiment in a line: microbe, parasite or virus in culture. It is filed as cell-based, SARS Coronavirus 2.
[2] abbreviates: recombinant SARS-CoV-2 Mpro 7.5 nM, fluorogenic peptide substrate 40 μM.
[3] abbreviates: Severe acute respiratory syndrome coronavirus, 48 h, read-out: MPro EC50.
Where [4] appears, read: Severe acute respiratory syndrome coronavirus, 48 h; read-out: MPro EC50.
Where [5] appears, read: recombinant SARS-CoV-2 Mpro, fluorogenic peptide substrate.

Like-named read-outs stand apart in the source and are kept apart here. A value given as a limit tells only on which side of the number the result lay.

Usually IC50 stands for the midpoint of a concentration-inhibition curve. In general, EC50 refers to the concentration that produces a half-maximal response. As to `COc1ccc(Cl)c(-c2cc3[nH]c(=O)n(-c4cncc5c(Cl)cccc45)c(=O)c3s2)c1` [Example 595], the IC50 in experiment [1] (setting [2]) is 476 nM. In addition, in the experiment with SARS-CoV-2-NLuc (setting [3]), the 50% effective concentration (EC50) was determined as 1180 nM.

As for `COc1cc(-c2cc3c(s2)c(=O)n(-c2cncc4ccsc24)c(=O)n3CCC#N)c(Cl)cc1F` [Example 654], the IC50 in experiment [1] (setting [2]) was determined as 3.87 nM. Also, in the experiment with SARS-CoV-2-NLuc (setting [3]), the 50% effective concentration (EC50) stood at 2.42 nM.

`COc1cc(-c2cc3[nH]c(=O)n(-c4cncc5cnn(C)c45)c(=O)c3s2)c(C)cc1Cl` [Example 666]: the IC50 in experiment [1] (setting [2]) worked out at 24 nM. Moreover, the 50% effective concentration (EC50) in the experiment on SARS-CoV-2-NLuc (setting [4]) turned out to be 55.6 nM.

Turning to `O=c1[nH]c2cc(-c3ccccc3Cl)c(F)cc2c(=O)n1-c1cncc2ccccc12` [Example 37], the half-maximal inhibitory concentration (IC50) in experiment [1] (setting [5]) stood at 248 nM. Besides, in the experiment on SARS-CoV-2-NLuc (setting [3]), the EC50 was determined as 170 nM.

On to `Cc1ccc(C#N)cc1-c1cc2c(s1)c(=O)n(-c1cncc3cnn(C)c13)c(=O)n2CCC#N` [Example 809], for which, in experiment [1] (setting [2]), the IC50 was determined as 54.2 nM. The EC50 in the experiment on SARS-CoV-2-NLuc (setting [3]) came out at 200 nM.

In the case of `Cc1nnc2n1CCN(c1ccc3cncc(-n4c(=O)[nH]c5cc(-c6ccccc6Cl)sc5c4=O)c3c1)C2` [Example 396], the IC50 in experiment [1] (setting [2]) worked out at 14.9 nM. Further, the concentration giving a half-maximal response (EC50) with SARS-CoV-2-NLuc (setting [3]) came out at 3010 nM.

Consider `O=c1[nH]c2cc(-c3cc4c(cc3Cl)OC(F)(F)O4)sc2c(=O)n1-c1cncc2ccccc12` [Example 348], for which the IC50 in experiment [1] (setting [5]) is 4760 nM. Further, the EC50 with SARS-CoV-2-NLuc (setting [3]) turned out to be 8930 nM.

Consider `CC(C)(O)c1cncc(-c2cccc(Cl)c2-c2ccc3c(=O)n(-c4cncc5ccccc45)c(=O)[nH]c3c2)c1` [Example 209], for which the IC50 in experiment [1] (setting [5]) came out at 10.4 nM. Moreover, in the experiment on SARS-CoV-2-NLuc (setting [3]), the EC50 stood at 23.6 nM.

Take `CS(=O)(=O)c1cncc(-c2cccc(Cl)c2-c2ccc3c(=O)n(-c4cncc5ccccc45)c(=O)[nH]c3c2)c1` [Example 203]: the half-inhibitory concentration (IC50) in experiment [1] (setting [5]) worked out at 11.1 nM. Besides, the EC50 in the experiment on SARS-CoV-2-NLuc (setting [3]) amounted to 26.9 nM.

`COc1cc(-c2cc3[nH]c(=O)n(-c4cncc5cnn(C)c45)c(=O)c3s2)c(Cl)cc1F` (single isomer, unassigned) [Example 640, 6-(2-chloro-4-fluoro-5-methoxy-phenyl)-3-(1-methylpyrazolo[4,3-c]pyridin-7-yl)-1H-thieno[3,2-d]pyrimidine-2,4-dione]: the IC50 in experiment [1] (setting [2]) was below 4.26 nM. In addition, in the experiment on SARS-CoV-2-NLuc (read-out: MPro EC50), the EC50 was 3.48 nM.

For `COc1cccc(C#N)c1-c1cc2c(s1)c(=O)n(-c1cncc3ccccc13)c(=O)n2CCC#N` [Example 820], the IC50 in experiment [1] (setting [2]) was 5.73 nM. For the same compound, the EC50 in the experiment on SARS-CoV-2-NLuc (setting [3]) was 32.9 nM.

In the case of `COc1cc(-c2cc3c(s2)c(=O)n(-c2cncc4nn(CC(F)(F)F)c(C)c24)c(=O)n3CCC#N)c(Cl)cc1F` [Example 918], the 50% inhibitory concentration (IC50) in experiment [1] (setting [2]) was 24.3 nM. Also, in the experiment on SARS-CoV-2-NLuc (setting [3]), the EC50 was 43.1 nM.

On to `COc1ccc(C#N)c(-c2cc3[nH]c(=O)n(-c4cncc5sccc45)c(=O)c3s2)c1` [Example 608], for which the IC50 in experiment [1] (setting [2]) is below 2.54 nM. Besides, the EC50 with SARS-CoV-2-NLuc (setting [3]) is below 4.97 nM.

With `COc1ccc(Cl)c(-c2cc3[nH]c(=O)n(-c4cncc5ccc(N6CCn7nc(C(F)(F)F)nc7C6)cc45)c(=O)c3s2)c1` [Example 604], the IC50 in experiment [1] (setting [2]) was determined as 6.32 nM. The EC50 with SARS-CoV-2-NLuc (setting [3]) stood at 10.9 nM.

Turning to `COc1cc(-c2cc3[nH]c(=O)n(-c4cncc5nccn45)c(=O)c3s2)c(Cl)cc1F` [Example 978], the IC50 in experiment [1] (setting [2]) is 33.4 nM. In addition, the EC50 in the experiment with SARS-CoV-2-NLuc (setting [4]) was found to be 369 nM.

On to `COc1cc(-c2cc3[nH]c(=O)n(-c4cncc5cccc(C)c45)c(=O)c3s2)c(Cl)cc1F` (single isomer, unassigned) [Example 996, 6-(2-chloro-4-fluoro-5-methoxyphenyl)-3-(5-methylisoquinolin-4-yl)thieno[3,2-d]pyrimidine-2,4(1H,3H)-dione], for which the IC50 in experiment [1] (setting [2]) was determined as 6390 nM. For the same compound, the 50% effective concentration (EC50) with SARS-CoV-2-NLuc (read-out: MPro EC50) was found to be 1530 nM.

Turning to `Cc1cnnc(-n2c(=O)c3sc(-c4ccccc4Cl)cc3n(CCC#N)c2=O)c1` [Example 835], the IC50 in experiment [1] (setting [2]) came out at 9.44 nM. Also, the EC50 in the experiment on SARS-CoV-2-NLuc (setting [4]) was 28.1 nM.

With `COc1ccc(Cl)c(-c2cc3[nH]c(=O)n(-c4cncc5sc(C(C)(C)O)c(C)c45)c(=O)c3s2)c1` [Example 516], the IC50 in experiment [1] (setting [2]) is 5.27 nM. In addition, the EC50 with SARS-CoV-2-NLuc (setting [3]) was 7.87 nM.

`COc1ccc(Cl)c(-c2ccc3c(=O)n(-c4cncc5ccc(N6CC7(COCCO7)C6)cc45)c(=O)[nH]c3c2)c1` [Example 412]: in experiment [1] (setting [2]), the IC50 is 10.8 nM. Besides, the EC50 with SARS-CoV-2-NLuc (setting [4]) is 38.3 nM.

(Values after patent US20240116946A1 (Gilead Sciences, Inc., priority 2022, published 2024).)
